Values after ≈ are worked out from the molar mass of the structure shown.
Key:
Pseudomonas aeruginosa [1] = assay: Antimicrobial activity against Pseudomonas aeruginosa; format: functional
Escherichia coli [2] = assay: Antimicrobial activity against Escherichia coli; format: functional
Klebsiella pneumoniae [3] = assay: Antimicrobial activity against Klebsiella pneumoniae; format: functional
[4] = Antifungal activity against Cochliobolus miyabeanus; format: functional; conditions: Bipolaris oryzae
[5] = Antifungal activity against Diaporthe nomurai; format: functional
[6] = Antifungal activity against Fusarium lateritium f. sp. mori; format: functional
Rosellinia necatrix = assay: Antifungal activity against Rosellinia necatrix; format: functional
[7] = Antifungal activity against Stigmina mori; format: functional
[8] = Antifungal activity against Fusarium solani f. sp. mori; format: functional
[9] = Antifungal activity against Fusarium roseum; format: functional
RAW264.7 [10] = assay: Antiinflammatory activity against mouse RAW264.7 cells assessed as reduction of IFNgamma-induced NO production; format: functional, cell-based
RAW264.7 [11] = assay: Antiinflammatory activity against mouse RAW264.7 cells assessed as reduction of LPS-induced NO production; format: functional, cell-based
[12] = Inhibition of alpha-glucosidase (unknown origin); design: species or system Homo sapiens
Escherichia coli [13] = assay: Microbicidal activity against Escherichia coli by liquid microdilution assay; format: functional
Shigella dysenteriae [14] = assay: Microbicidal activity against Shigella dysenteriae by liquid microdilution assay; format: functional
Pseudomonas aeruginosa [15] = assay: Antimicrobial activity against Pseudomonas aeruginosa by liquid microdilution assay; format: functional
[16] = Antioxidant activity assessed as DPPH radical scavenging activity measured as discoloration at 12.5 ug/ml; format: physicochemical
[17] = Antioxidant activity assessed as DPPH radical scavenging activity measured as discoloration at 25 ug/ml; format: physicochemical
Candida albicans [18] = assay: Microbicidal activity against Candida albicans by liquid microdilution assay; format: functional
Shigella dysenteriae [19] = assay: Antimicrobial activity against Shigella dysenteriae by liquid microdilution assay; format: functional
Citrobacter freundii [20] = assay: Antimicrobial activity against Citrobacter freundii by liquid microdilution assay; format: functional
Staphylococcus aureus [21] = assay: Microbicidal activity against Staphylococcus aureus by liquid microdilution assay; format: functional
[22] = Antioxidant activity assessed as DPPH radical scavenging activity measured as discoloration at 100 ug/ml; format: physicochemical
Citrobacter freundii [23] = assay: Microbicidal activity against Citrobacter freundii by liquid microdilution assay; format: functional
Salmonella typhi [24] = assay: Antimicrobial activity against Salmonella typhi by liquid microdilution assay; format: functional, Salmonella enterica subsp. enterica serovar Typhi; conditions: Salmonella enterica
Klebsiella pneumoniae [25] = assay: Microbicidal activity against Klebsiella pneumoniae by liquid microdilution assay; format: functional
Enterococcus faecalis [26] = assay: Antimicrobial activity against Streptococcus faecalis by liquid microdilution assay; format: functional
Microsporum audouinii [27] = assay: Antimicrobial activity against Microsporum audouinii by liquid microdilution assay; format: functional
[28] = Antioxidant activity assessed as DPPH radical scavenging activity measured as discoloration at 50 ug/ml; format: physicochemical
Klebsiella pneumoniae [29] = assay: Antimicrobial activity against Klebsiella pneumoniae by liquid microdilution assay; format: functional
Bacillus cereus [30] = assay: Microbicidal activity against Bacillus cereus by liquid microdilution assay; format: functional
Candida albicans [31] = assay: Antimicrobial activity against Candida albicans by liquid microdilution assay; format: functional
Salmonella typhi [32] = assay: Microbicidal activity against Salmonella typhi by liquid microdilution assay; format: functional, Salmonella enterica subsp. enterica serovar Typhi; conditions: Salmonella enterica
Staphylococcus aureus [33] = assay: Antimicrobial activity against Staphylococcus aureus by liquid microdilution assay; format: functional
Escherichia coli [34] = assay: Antimicrobial activity against Escherichia coli by liquid microdilution assay; format: functional
[35] = Antioxidant activity assessed as DPPH radical scavenging activity; format: physicochemical
Pseudomonas aeruginosa [36] = assay: Microbicidal activity against Pseudomonas aeruginosa by liquid microdilution assay; format: functional
Bacillus cereus [37] = assay: Antimicrobial activity against Bacillus cereus by liquid microdilution assay; format: functional
Enterococcus faecalis [38] = assay: Microbicidal activity against Streptococcus faecalis by liquid microdilution assay; format: functional
Microsporum audouinii [39] = assay: Microbicidal activity against Microsporum audouinii by liquid microdilution assay; format: functional
Bacillus subtilis = assay: Antimicrobial activity against Bacillus subtilis; format: functional
Tyrosinase = Tyrosinase (Agaricus bisporus, UniProt O42713); assay: Inhibition of mushroom tyrosinase
[40] = Cytotoxicity against human Hep3B cells assessed as cell viability after 24 hrs by MTT assay; format: cell-based, Hep 3B2
Staphylococcus aureus [41] = assay: Antimicrobial activity against methicillin-resistant Staphylococcus aureus; format: functional
Staphylococcus aureus [42] = assay: Antimicrobial activity against methicillin-sensitive Staphylococcus aureus; format: functional
Micrococcus luteus = assay: Antimicrobial activity against Micrococcus luteus; format: functional

Sequence of Tyrosinase (O42713 whole entry): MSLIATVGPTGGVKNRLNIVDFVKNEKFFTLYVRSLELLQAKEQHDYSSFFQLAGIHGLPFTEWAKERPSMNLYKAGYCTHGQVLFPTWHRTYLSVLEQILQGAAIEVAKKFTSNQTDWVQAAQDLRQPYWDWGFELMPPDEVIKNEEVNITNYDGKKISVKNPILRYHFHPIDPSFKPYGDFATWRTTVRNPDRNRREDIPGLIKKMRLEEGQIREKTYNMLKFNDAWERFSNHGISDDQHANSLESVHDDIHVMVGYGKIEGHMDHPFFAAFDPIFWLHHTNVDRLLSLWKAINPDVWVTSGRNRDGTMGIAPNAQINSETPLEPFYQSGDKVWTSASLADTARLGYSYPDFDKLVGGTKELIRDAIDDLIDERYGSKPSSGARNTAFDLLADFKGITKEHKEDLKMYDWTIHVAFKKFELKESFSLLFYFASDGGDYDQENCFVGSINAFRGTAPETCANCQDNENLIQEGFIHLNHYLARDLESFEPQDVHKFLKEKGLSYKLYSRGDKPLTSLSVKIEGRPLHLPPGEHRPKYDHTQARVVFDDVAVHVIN

COc1cc(OC)c2cc(-c3cc(O)cc(O)c3)oc2c1
MIC (Pseudomonas aeruginosa [1]): > 100 µg/mL
MIC (Escherichia coli [2]): > 100 µg/mL
MIC (Klebsiella pneumoniae [3]): > 100 µg/mL

CC1(C)C=Cc2c(cc(O)cc2-c2cc3ccc(O)cc3o2)O1
MIC [4]: 100 µg/mL (≈ 324 µM)
MIC [5]: 15 µg/mL (≈ 48.6 µM)
MIC [6]: 50 µg/mL (≈ 162 µM)
MIC (Pseudomonas aeruginosa [1]): > 100 µg/mL
MIC (Escherichia coli [2]): > 100 µg/mL
MIC (Rosellinia necatrix): 15 µg/mL (≈ 48.6 µM)
MIC [7]: 200 µg/mL (≈ 649 µM)
MIC [8]: 200 µg/mL (≈ 649 µM)
MIC (Klebsiella pneumoniae [3]): > 100 µg/mL
MIC [9]: 15 µg/mL (≈ 48.6 µM)

CC1(C)C=Cc2c(O)cc(-c3cc4ccc(O)cc4o3)cc2O1 [MORACIN D]
IC50 (RAW264.7 [10]): 18 µM
MIC [4]: 14 µg/mL (≈ 45.4 µM)
MIC [5]: 7 µg/mL (≈ 22.7 µM)
MIC [6]: 28 µg/mL (≈ 90.8 µM)
MIC (Pseudomonas aeruginosa [1]): > 100 µg/mL
MIC (Escherichia coli [2]): > 100 µg/mL
MIC (Rosellinia necatrix): < 3.5 µg/mL
MIC [7]: 56 µg/mL (≈ 182 µM)
IC50 (RAW264.7 [11]): 18 µM
MIC [8]: 112 µg/mL (≈ 363 µM)
IC50 [12]: 2.54 µM
MIC (Klebsiella pneumoniae [3]): > 100 µg/mL
MIC [9]: 7 µg/mL (≈ 22.7 µM)

COc1c(O)cc2oc(-c3cc(O)cc(O)c3)cc2c1CC=C(C)C
MBC (Escherichia coli [13]): 10 µg/mL (≈ 29.4 µM)
MBC (Shigella dysenteriae [14]): 10 µg/mL (≈ 29.4 µM)
MIC (Pseudomonas aeruginosa [15]): 5 µg/mL (≈ 14.7 µM)
Activity [16]: 61.58%
Activity [17]: 65.63%
MFC (Candida albicans [18]): 20 µg/mL (≈ 58.8 µM)
MIC (Shigella dysenteriae [19]): 5 µg/mL (≈ 14.7 µM)
MIC (Citrobacter freundii [20]): 156 µg/mL (≈ 458 µM)
MIC (Pseudomonas aeruginosa [1]): > 100 µg/mL
MBC (Staphylococcus aureus [21]): 39 µg/mL (≈ 115 µM)
Activity [22]: 83.04%
MIC (Escherichia coli [2]): > 100 µg/mL
MBC (Citrobacter freundii [23]): 312 µg/mL (≈ 917 µM)
MIC (Salmonella typhi [24]): 5 µg/mL (≈ 14.7 µM)
MBC (Klebsiella pneumoniae [25]): 78 µg/mL (≈ 229 µM)
MIC (Enterococcus faecalis [26]): 10 µg/mL (≈ 29.4 µM)
MIC (Microsporum audouinii [27]): 39 µg/mL (≈ 115 µM)
Activity [28]: 71.72%
MIC (Klebsiella pneumoniae [29]): 39 µg/mL (≈ 115 µM)
MBC (Bacillus cereus [30]): 39 µg/mL (≈ 115 µM)
MIC (Candida albicans [31]): 10 µg/mL (≈ 29.4 µM)
MBC (Salmonella typhi [32]): 20 µg/mL (≈ 58.8 µM)
MIC (Staphylococcus aureus [33]): 10 µg/mL (≈ 29.4 µM)
MIC (Escherichia coli [34]): 5 µg/mL (≈ 14.7 µM)
EC50 [35]: 4.12 µg/mL (≈ 12.1 µM)
MIC (Klebsiella pneumoniae [3]): > 100 µg/mL
MBC (Pseudomonas aeruginosa [36]): 20 µg/mL (≈ 58.8 µM)
MIC (Bacillus cereus [37]): 5 µg/mL (≈ 14.7 µM)
MBC (Enterococcus faecalis [38]): 39 µg/mL (≈ 115 µM)
MFC (Microsporum audouinii [39]): 78 µg/mL (≈ 229 µM)

CC1(C)C=Cc2c(c(O)cc3cc(-c4cc(O)cc(O)c4)oc23)O1
MIC (Pseudomonas aeruginosa [1]): > 100 µg/mL
MIC (Escherichia coli [2]): > 100 µg/mL
MIC (Klebsiella pneumoniae [3]): > 100 µg/mL

CC1(O)C=Cc2c(c(O)cc3cc(-c4cc(O)cc(O)c4)oc23)OC1 (stereo not given)
MBC (Escherichia coli [13]): 39 µg/mL (≈ 115 µM)
MBC (Shigella dysenteriae [14]): 156 µg/mL (≈ 458 µM)
MIC (Pseudomonas aeruginosa [15]): 625 µg/mL (≈ 1840 µM)
Activity [16]: 38.5%
Activity [17]: 42.09%
MFC (Candida albicans [18]): 625 µg/mL (≈ 1840 µM)
MIC (Shigella dysenteriae [19]): 78 µg/mL (≈ 229 µM)
MIC (Citrobacter freundii [20]): 312 µg/mL (≈ 917 µM)
MIC (Pseudomonas aeruginosa [1]): > 100 µg/mL
MBC (Staphylococcus aureus [21]): 312 µg/mL (≈ 917 µM)
Activity [22]: 53.6%
MIC (Escherichia coli [2]): > 100 µg/mL
MBC (Citrobacter freundii [23]): 625 µg/mL (≈ 1840 µM)
MIC (Salmonella typhi [24]): 39 µg/mL (≈ 115 µM)
MBC (Klebsiella pneumoniae [25]): 312 µg/mL (≈ 917 µM)
MIC (Enterococcus faecalis [26]): 20 µg/mL (≈ 58.8 µM)
MIC (Microsporum audouinii [27]): 78 µg/mL (≈ 229 µM)
Activity [28]: 49.98%
MIC (Klebsiella pneumoniae [29]): 156 µg/mL (≈ 458 µM)
MBC (Bacillus cereus [30]): 39 µg/mL (≈ 115 µM)
MIC (Candida albicans [31]): 312 µg/mL (≈ 917 µM)
MBC (Salmonella typhi [32]): 78 µg/mL (≈ 229 µM)
MIC (Staphylococcus aureus [33]): 156 µg/mL (≈ 458 µM)
MIC (Escherichia coli [34]): 10 µg/mL (≈ 29.4 µM)
EC50 [35]: 6.08 µg/mL (≈ 17.9 µM)
MIC (Klebsiella pneumoniae [3]): > 100 µg/mL
MIC (Bacillus cereus [37]): 10 µg/mL (≈ 29.4 µM)
MBC (Enterococcus faecalis [38]): 78 µg/mL (≈ 229 µM)
MFC (Microsporum audouinii [39]): 312 µg/mL (≈ 917 µM)

COc1cc2c(c3oc(-c4cc(O)cc(O)c4)cc13)CC=C(C)CO2
MIC [4]: 50 µg/mL (≈ 148 µM)
MIC [5]: 50 µg/mL (≈ 148 µM)
MIC [6]: 100 µg/mL (≈ 296 µM)
MIC (Pseudomonas aeruginosa [1]): > 100 µg/mL
MIC (Escherichia coli [2]): > 100 µg/mL
MIC (Rosellinia necatrix): 15 µg/mL (≈ 44.3 µM)
MIC [7]: 50 µg/mL (≈ 148 µM)
MIC [8]: 1000 µg/mL (≈ 2960 µM)
MIC (Klebsiella pneumoniae [3]): > 100 µg/mL
MIC [9]: 15 µg/mL (≈ 44.3 µM)

COc1cc(O)cc(-c2cc3ccc(O)cc3o2)c1CC=C(C)C [MORACIN I]
MIC (Pseudomonas aeruginosa [1]): > 100 µg/mL
MIC (Escherichia coli [2]): > 100 µg/mL
MIC (Klebsiella pneumoniae [3]): > 100 µg/mL

COc1cc(O)cc(-c2cc3cc(O)c(OC)cc3o2)c1
MIC (Pseudomonas aeruginosa [1]): > 100 µg/mL
MIC (Escherichia coli [2]): > 100 µg/mL
MIC (Klebsiella pneumoniae [3]): > 100 µg/mL

CC1(C)Oc2cc3oc(-c4cc(O)cc(O)c4)cc3cc2CC1O (stereo not drawn) [(+/-)-MORACIN P]
IC50 (RAW264.7 [10]): 19.3 µM
MIC (Pseudomonas aeruginosa [1]): > 100 µg/mL
MIC (Escherichia coli [2]): > 100 µg/mL
IC50 (RAW264.7 [11]): 19.3 µM
MIC (Bacillus subtilis): 100 µg/mL (≈ 306 µM)
IC50 (Tyrosinase): 2.9 µM
MIC (Klebsiella pneumoniae [3]): > 100 µg/mL
IC50 [40]: > 30 µM
MIC (Staphylococcus aureus [41]): 100 µg/mL (≈ 306 µM)
MIC (Staphylococcus aureus [42]): 50 µg/mL (≈ 153 µM)
MIC (Micrococcus luteus): 100 µg/mL (≈ 306 µM)

COc1cc2cc(-c3cc(O)cc(O)c3)oc2cc1OC
MIC [4]: 100 µg/mL (≈ 349 µM)
MIC [5]: 1000 µg/mL (≈ 3490 µM)
MIC [6]: 200 µg/mL (≈ 699 µM)
MIC (Pseudomonas aeruginosa [1]): > 100 µg/mL
MIC (Escherichia coli [2]): > 100 µg/mL
MIC (Rosellinia necatrix): 50 µg/mL (≈ 175 µM)
MIC [7]: 50 µg/mL (≈ 175 µM)
MIC [8]: 1000 µg/mL (≈ 3490 µM)
MIC (Klebsiella pneumoniae [3]): > 100 µg/mL
MIC [9]: 50 µg/mL (≈ 175 µM)
